Measurements published in the supplement of paper PMC10307832.

Tests used:
Test in all cases: relative viability (nuclei count vs DMSO), 5 days (fraction); higher = more cells survive
SW 1573 = test system: SW 1573
Method in brief: (§1)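 Dosing by pin tool came one day after lung cancer cell lines were seeded in 1536-well plates, using either one drug or a fixed anchor-drug dose plus five library-drug doses (not always all listed) in √10 steps. After 5 days, nuclei were counted on 4× images. Relative viability is treated-well nuclei count divided by vehicle-well nuclei count, and values are medians of duplicate plates.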

RERF-LC-KJ = test system: RERF-LC-KJ
Method in brief: as §1

SK-MES-1 = test system: SK-MES-1
Method in brief: as §1

EMC-BAC-2 = test system: EMC-BAC-2
Method in brief: as §1

NCI-H2347 = test system: NCI-H2347
Method in brief: as §1

HOP-62 = test system: HOP-62
Method in brief: as §1

NCI-H3122 = test system: NCI-H3122
Method in brief: as §1

NCI-H2009 = test system: NCI-H2009
Method in brief: as §1

NCI-H838 = test system: NCI-H838
Method in brief: as §1

NCI-H2228 = test system: NCI-H2228
Method in brief: as §1

ABC-1 = test system: ABC-1
Method in brief: as §1

LK-2 = test system: LK-2
Method in brief: as §1

EKVX = test system: EKVX
Method in brief: as §1

201T = test system: 201T
Method in brief: as §1

LC-2-ad = test system: LC-2-ad
Method in brief: as §1

ChaGo-K-1 = test system: ChaGo-K-1
Method in brief: as §1

HCC-78 = test system: HCC-78
Method in brief: as §1

UMC-11 = test system: UMC-11
Method in brief: as §1

NCI-H1355 = test system: NCI-H1355
Method in brief: as §1

PC-14 = test system: PC-14
Method in brief: as §1

HCC-44 = test system: HCC-44
Method in brief: as §1

COCC1(CO)C(=O)C2CCN1CC2 (centres undefined) [PRIMA-1MET] + C[C@@H](Oc1cc(-c2cnn(C3CCNCC3)c2)cnc1N)c1c(Cl)ccc(F)c1Cl [Crizotinib] (partner 1 µM)
relative viability (SW 1573; first compound 0.2 µM): 0.935
relative viability (SW 1573; first compound 0.6325 µM): 0.571
relative viability (SW 1573; first compound 2 µM): 0.843
relative viability (SW 1573; first compound 6.325 µM): 0.276
relative viability (SW 1573; first compound 20 µM): 0.0264
relative viability (RERF-LC-KJ; first compound 0.2 µM): 0.868
relative viability (RERF-LC-KJ; first compound 0.6325 µM): 0.767
relative viability (RERF-LC-KJ; first compound 2 µM): 0.86
relative viability (RERF-LC-KJ; first compound 6.325 µM): 0.85
relative viability (RERF-LC-KJ; first compound 20 µM): 0.847
relative viability (SK-MES-1; first compound 0.2 µM): 1.09
relative viability (SK-MES-1; first compound 0.6325 µM): 0.968
relative viability (SK-MES-1; first compound 2 µM): 1.03
relative viability (SK-MES-1; first compound 6.325 µM): 0.943
relative viability (SK-MES-1; first compound 20 µM): 0.997
relative viability (EMC-BAC-2; first compound 0.2 µM): 0.837
relative viability (EMC-BAC-2; first compound 0.6325 µM): 0.779
relative viability (EMC-BAC-2; first compound 2 µM): 0.666
relative viability (EMC-BAC-2; first compound 6.325 µM): 0.771
relative viability (EMC-BAC-2; first compound 20 µM): 0.793
relative viability (NCI-H2347; first compound 0.2 µM): 0.705
relative viability (NCI-H2347; first compound 0.6325 µM): 0.667
relative viability (NCI-H2347; first compound 2 µM): 0.295
relative viability (NCI-H2347; first compound 6.325 µM): 0.771
relative viability (NCI-H2347; first compound 20 µM): 0.682
relative viability (HOP-62; first compound 0.2 µM): 0.999
relative viability (HOP-62; first compound 0.6325 µM): 0.76
relative viability (HOP-62; first compound 2 µM): 0.666
relative viability (HOP-62; first compound 6.325 µM): 0.969
relative viability (HOP-62; first compound 20 µM): 0.768
relative viability (NCI-H3122; first compound 0.2 µM): 0.317
relative viability (NCI-H3122; first compound 0.6325 µM): 0.25
relative viability (NCI-H3122; first compound 2 µM): 0.259
relative viability (NCI-H3122; first compound 6.325 µM): 0.286
relative viability (NCI-H3122; first compound 20 µM): 0.284
relative viability (NCI-H2009; first compound 0.2 µM): 0.99
relative viability (NCI-H2009; first compound 0.6325 µM): 0.889
relative viability (NCI-H2009; first compound 2 µM): 1.09
relative viability (NCI-H2009; first compound 6.325 µM): 1.05
relative viability (NCI-H2009; first compound 20 µM): 0.295
relative viability (NCI-H838; first compound 0.2 µM): 1.06
relative viability (NCI-H838; first compound 0.6325 µM): 0.755
relative viability (NCI-H838; first compound 2 µM): 0.793
relative viability (NCI-H838; first compound 6.325 µM): 0.906
relative viability (NCI-H838; first compound 20 µM): 0.318
relative viability (NCI-H2228; first compound 0.2 µM): 0.414
relative viability (NCI-H2228; first compound 0.6325 µM): 0.455
relative viability (NCI-H2228; first compound 2 µM): 0.444
relative viability (NCI-H2228; first compound 6.325 µM): 0.547
relative viability (NCI-H2228; first compound 20 µM): 0.0537
relative viability (ABC-1; first compound 0.2 µM): 1.39
relative viability (ABC-1; first compound 0.6325 µM): 1.22
relative viability (ABC-1; first compound 2 µM): 0.945
relative viability (ABC-1; first compound 6.325 µM): 0.908
relative viability (ABC-1; first compound 20 µM): 0.555
relative viability (LK-2; first compound 0.2 µM): 0.221
relative viability (LK-2; first compound 0.6325 µM): 0.182
relative viability (LK-2; first compound 2 µM): 0.22
relative viability (LK-2; first compound 6.325 µM): 0.255
relative viability (LK-2; first compound 20 µM): 0.18
relative viability (EKVX; first compound 0.2 µM): 1.11
relative viability (EKVX; first compound 0.6325 µM): 0.893
relative viability (EKVX; first compound 2 µM): 0.665
relative viability (EKVX; first compound 6.325 µM): 0.997
relative viability (EKVX; first compound 20 µM): 0.891
relative viability (201T; first compound 0.2 µM): 1.11
relative viability (201T; first compound 0.6325 µM): 1
relative viability (201T; first compound 2 µM): 0.901
relative viability (201T; first compound 6.325 µM): 1.06
relative viability (201T; first compound 20 µM): 1.04
relative viability (LC-2-ad; first compound 0.2 µM): 0.484
relative viability (LC-2-ad; first compound 0.6325 µM): 0.434
relative viability (LC-2-ad; first compound 2 µM): 0.398
relative viability (LC-2-ad; first compound 6.325 µM): 0.39
relative viability (LC-2-ad; first compound 20 µM): 0.382
relative viability (ChaGo-K-1; first compound 0.2 µM): 1.31
relative viability (ChaGo-K-1; first compound 0.6325 µM): 0.898
relative viability (ChaGo-K-1; first compound 2 µM): 1.02
relative viability (ChaGo-K-1; first compound 6.325 µM): 1.15
relative viability (ChaGo-K-1; first compound 20 µM): 1.02
relative viability (HCC-78; first compound 0.2 µM): 0.427
relative viability (HCC-78; first compound 0.6325 µM): 0.34
relative viability (HCC-78; first compound 6.325 µM): 0.353
relative viability (HCC-78; first compound 20 µM): 0.0613
relative viability (UMC-11; first compound 0.2 µM): 0.536
relative viability (UMC-11; first compound 0.6325 µM): 0.643
relative viability (UMC-11; first compound 2 µM): 0.607
relative viability (UMC-11; first compound 6.325 µM): 0.726
relative viability (UMC-11; first compound 20 µM): 0.586
relative viability (NCI-H1355; first compound 0.2 µM): 1.2
relative viability (NCI-H1355; first compound 0.6325 µM): 1.02
relative viability (NCI-H1355; first compound 2 µM): 0.897
relative viability (NCI-H1355; first compound 6.325 µM): 1.05
relative viability (NCI-H1355; first compound 20 µM): 1.03
relative viability (PC-14; first compound 0.2 µM): 1.06
relative viability (PC-14; first compound 0.6325 µM): 0.852
relative viability (PC-14; first compound 2 µM): 0.853
relative viability (PC-14; first compound 6.325 µM): 0.975
relative viability (PC-14; first compound 20 µM): 1
relative viability (HCC-44; first compound 0.2 µM): 0.83
relative viability (HCC-44; first compound 0.6325 µM): 0.67
relative viability (HCC-44; first compound 2 µM): 0.867
relative viability (HCC-44; first compound 6.325 µM): 0.86
relative viability (HCC-44; first compound 20 µM): 0.807
